Experiment [1] in a line: Trypanosoma cruzi growth suppression in host cells – NIH3T3 host cells, beta-gal luminescence, confirmation (AID 2044).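 Note: intracellular parasites grown in NIH/3T3 mouse fibroblasts as host cells; luminescent beta-galactosidase reporter signal from transgenic T. cruzi replicating inside host cells; inhibitors lower the luminescence signal.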 The experiment is classed as functional, cell-based.
Experiment [2] can be described thus: NIH3T3 cell viability loss – ATP luminescence, mouse fibroblasts, counter-screen, dose response (AID 2010).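 Note: cells exposed to compound for about 90 hours before reading.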 The experiment is classed as functional, cell-based.
A short description of experiment [3]: viability loss in HeLa cells – cytotoxicity control for MgcRacGAP inhibitor project, dose response (AID 624300). The experiment is classed as functional.
Experiment [4] has as its target T1, Rac GTPase-activating protein 1 (Homo sapiens, UniProt Q9H0H5).
T1 sequence (Q9H0H5 whole entry): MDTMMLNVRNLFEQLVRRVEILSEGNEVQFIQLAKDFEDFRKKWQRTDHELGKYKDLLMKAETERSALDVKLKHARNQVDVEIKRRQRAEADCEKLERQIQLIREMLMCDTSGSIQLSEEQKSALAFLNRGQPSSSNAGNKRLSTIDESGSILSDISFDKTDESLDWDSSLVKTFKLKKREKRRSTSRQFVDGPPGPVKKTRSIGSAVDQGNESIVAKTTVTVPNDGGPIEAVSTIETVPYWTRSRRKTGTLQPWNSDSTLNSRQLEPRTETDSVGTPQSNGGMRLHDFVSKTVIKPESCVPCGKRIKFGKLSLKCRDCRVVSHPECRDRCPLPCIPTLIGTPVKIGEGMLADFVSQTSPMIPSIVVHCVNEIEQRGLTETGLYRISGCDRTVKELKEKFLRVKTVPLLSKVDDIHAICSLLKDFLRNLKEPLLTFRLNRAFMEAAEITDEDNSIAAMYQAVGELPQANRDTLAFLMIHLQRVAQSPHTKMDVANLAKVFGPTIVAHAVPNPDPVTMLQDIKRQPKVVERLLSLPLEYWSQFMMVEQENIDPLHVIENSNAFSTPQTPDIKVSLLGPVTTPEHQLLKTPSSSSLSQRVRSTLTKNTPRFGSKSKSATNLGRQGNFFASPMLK
The experiment is described as follows: blockers of MgcRacGAP-driven Rac1 GTP hydrolysis – biochemical, ADP Hunter fluorescence, primary and confirmatory, confirmation (AID 624330). The experiment is classed as functional.

A short description of experiment [5]: cells. The experiment is classed as functional, cell-based.
Experiment [6] deals with T2, Trace amine-associated receptor 1 (Homo sapiens, UniProt Q96RJ0).
T2 sequence (Q96RJ0 whole entry): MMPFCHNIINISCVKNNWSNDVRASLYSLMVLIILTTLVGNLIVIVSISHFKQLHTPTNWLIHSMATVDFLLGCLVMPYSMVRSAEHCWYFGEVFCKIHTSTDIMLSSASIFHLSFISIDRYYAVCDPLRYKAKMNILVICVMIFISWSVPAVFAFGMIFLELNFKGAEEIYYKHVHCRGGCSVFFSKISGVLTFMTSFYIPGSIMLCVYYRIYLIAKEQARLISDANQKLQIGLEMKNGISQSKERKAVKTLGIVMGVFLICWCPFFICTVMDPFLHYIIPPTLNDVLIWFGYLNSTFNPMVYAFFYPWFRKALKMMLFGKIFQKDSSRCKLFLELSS
In words: Fluorescence-based cell-based high throughput dose response assay to identify agonists of the human trace amine associated receptor 1 (TAAR1). The experiment is classed as functional.

Experiment [7] addresses T2, Trace amine-associated receptor 1. In words: Counterscreen for agonists of the human trace amine associated receptor 1 (hTAAR1): Fluorescence-based cell-based high throughput dose response assay to identify hTAAR1 agonist that also desensitize TAAR1 receptor response. The experiment is classed as functional. Background: A counterscreen serves to expose hits that act by an unwanted route or on another target.

Experiment [8] in a line: cells. The experiment is classed as functional, cell-based. The source holds these as a separate data set.
For another experiment, the target named is Cytochrome P450 2D6 (Homo sapiens, UniProt P10635).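 Note: CYP2D6 member of a cytochrome P450 panel assay.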
A short description of experiment [9]: viability loss in HepG2 hepatoma cells – cell-based, ATP luminescence, cherry-pick, activator set 2, cytotoxicity control, dose response (AID 1053143). The experiment is classed as functional.
Experiment [10] in a line: mouse fibroblast viability loss – cell-based, cherry-pick samples, set 2, cytotoxicity control for T. cruzi growth inhibitor project, dose response (AID 651817). The experiment is classed as functional. Conditions: NIH3T3.
Experiment [11] in a line: intracellular Trypanosoma cruzi inhibitors in host cells – cell-based, plate reader, cherry-pick samples, set 3, dose response (AID 651818).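 Note: compounds incubated with infected cells for about four days.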 The experiment is classed as functional.
Experiment [12] relates to Streptococcus sp. 'group A'. The experiment is described as follows: Streptococcus pyogenes SK(-)GAS viability under kanamycin – luminescence, BacTiterGlo, confirmation, counter-screen for streptokinase expression inhibitor project, dose response (AID 1900). The experiment is classed as functional, organism-based.
In a further experiment the test system is Streptococcus. In words: GAS UMAA2166 growth inhibition – luminescence, BacTiterGlo, counter-screen for streptokinase expression inhibitor project, dose response (AID 1915).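 Note: potency for reduction of bacterial viability or growth.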 The experiment is classed as functional, organism-based.
Experiment [13] can be described thus: HGIII-sPLA2 enzyme inhibition potency – biochemical, QFRET, IC50, dose response (AID 743457).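 Note: green fluorescence rise as the enzyme cleaves BODIPY PC-A2 in liposomes.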
The subject of the next experiment is HeLa. In words: viability loss in HeLa cells – cell-based, ATP luminescence, cherry-pick samples, cytotoxicity control, dose response (AID 687004). The experiment is classed as functional. Conditions: Homo sapiens.
Another experiment concerns the target Beta-galactosidase (Escherichia coli, UniProt Q8VNN2). In words: Dose response counterscreen for EBI2 assay utilizing the enzyme, b-galactosidase. The experiment is classed as functional.
Experiment [14] has as its target Mitogen-activated protein kinase 10 (Homo sapiens, UniProt P53779). In words: Dose response biochemical screening assay for inhibitors of c-Jun N-Terminal Kinase 3 (JNK3). [Related pubchem assays: 746 ].
In a further experiment the target is Major prion protein (Homo sapiens, UniProt P04156). The experiment is classed as functional, cell-based.
A short description of experiment [15]: cells.
Experiment [16] concerns the target T3, Corticotropin-releasing factor receptor 2/Corticotropin-releasing factor-binding protein (Homo sapiens, UniProt P24387+Q13324).
T3 sequence (Q13324 whole entry): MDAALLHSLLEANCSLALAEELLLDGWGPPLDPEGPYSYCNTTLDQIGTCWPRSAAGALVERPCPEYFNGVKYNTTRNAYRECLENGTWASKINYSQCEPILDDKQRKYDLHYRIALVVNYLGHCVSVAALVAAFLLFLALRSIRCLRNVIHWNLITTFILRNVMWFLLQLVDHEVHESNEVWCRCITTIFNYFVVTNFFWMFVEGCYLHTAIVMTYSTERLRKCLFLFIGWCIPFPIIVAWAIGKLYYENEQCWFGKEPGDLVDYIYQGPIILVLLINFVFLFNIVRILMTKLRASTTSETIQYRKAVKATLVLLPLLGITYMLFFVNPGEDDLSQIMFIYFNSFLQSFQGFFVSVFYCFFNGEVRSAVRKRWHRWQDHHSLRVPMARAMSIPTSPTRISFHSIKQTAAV
T3 sequence (P24387 whole entry): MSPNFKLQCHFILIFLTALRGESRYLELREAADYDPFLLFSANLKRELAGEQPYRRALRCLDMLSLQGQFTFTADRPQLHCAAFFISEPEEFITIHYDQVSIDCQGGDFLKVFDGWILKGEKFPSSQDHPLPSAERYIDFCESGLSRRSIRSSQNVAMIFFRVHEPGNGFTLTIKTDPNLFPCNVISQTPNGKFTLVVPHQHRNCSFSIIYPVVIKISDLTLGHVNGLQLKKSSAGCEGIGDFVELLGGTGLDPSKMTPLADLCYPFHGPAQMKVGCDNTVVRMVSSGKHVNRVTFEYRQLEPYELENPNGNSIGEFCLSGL
The experiment is described as follows: Dose Response confirmation of uHTS hits for small molecule antagonists of the CRF-binding protein and CRF-R2 receptor complex. The experiment is classed as functional. The following applies: read-out: IC50_Mean.

Experiment [17] deals with T3, Corticotropin-releasing factor receptor 2/Corticotropin-releasing factor-binding protein. The experiment is described as follows: activators of CRF receptor 2 with binding protein – uHTS hits, confirmation (AID 602473). The experiment is classed as functional. Conditions: read-out: EC50_Mean.
The target of experiment [18] is DNA repair protein RAD52 homolog (Homo sapiens, UniProt P43351). The experiment is classed as functional, biochemical.

Consider 16 compounds from ChEMBL document CHEMBL1201862, “PubChem BioAssay data set” (2004).

Calls of active or inactive are those of the source.

A word on the CC50: it is the concentration at which the toxic effect on the cells reaches its halfway point. `COCc1cc([S+]([O-])c2ccc(Cl)cc2)nc(C)n1` (stereo not given): the EC50 in experiment [1] was 1.78 µM (active); in experiment [2], > 60 µM (not active). In addition, the CC50 in [3] is 95 µM (active). Besides, the IC50 in experiment [4] was 87.8 µM (active).

In the case of `CC1CC(=O)N(c2ccc(NCCc3ccc(O)cc3)c([N+](=O)[O-])c2)C1=O` (stereo not given), in experiment [3], the CC50 is 100 µM (active). Besides, the IC50 in experiment [4] is 52.9 µM (active).

For orientation: AC50 means the midpoint of the concentration-response curve, whichever way the signal moves. As for `c1ccc2cc(CC3=NCCN3)ccc2c1`, the IC50 in “cells [5]” is > 30 µM (inactive); in experiment [7], 3.65 µM (active). For the same compound, the EC50 in experiment [6] was 0.322 µM (active); in “cells [8]” it was > 30 µM (inactive). Further, the AC50 at Cytochrome P450 2D6 was 39.8 µM (inconclusive).

On to `Cc1ccc2c(c1)-c1nc3ccccc3cc1/C2=N/C1CCCCC1`, for which the concentration at half-maximal activity (AC50) in [9] was 22.2 µM (active).

Consider `C[C@H](CO)N1C[C@H](C)[C@@H](CN(C)Cc2ccccc2)Oc2c(NC(=O)c3ccncc3)cccc2C1=O`, for which the AC50 in [10] is 39 µM (inactive); in experiment [11], 0.179 µM (active).

For `COc1ccc(/C=C/C(=O)NC(=S)NNC(=O)c2ccco2)cc1`, the EC50 is 1.72 µM (active) in experiment [12] and 3.29 µM (active) in the experiment with Streptococcus. Further, the IC50 in experiment [13] was 34.9 µM (inactive).

For the compound `Fc1ccc(-n2c(S)nnc2-c2ccc3c(c2)OCO3)cc1Cl`, the IC50 in experiment [13] is > 122 µM (inactive).

Take `CO[C@H]1CN(C)C(=O)c2cc(NS(=O)(=O)CC(F)(F)F)ccc2OC[C@@H](C)N(Cc2cccnc2)C[C@@H]1C`: the concentration at half-maximal activity (AC50) in the experiment on HeLa is 21.5 µM (active).

With `Cc1ccc(S(=O)(=O)N2CCN(C(=O)COc3ccc(Br)cc3)CC2)cc1`, the IC50 on Beta-galactosidase is > 80 µM (inactive).

For `COC(=O)c1sccc1NC(=O)C1CC=CCC1C(=O)O` (stereo not given), the IC50 was 19.8 µM (not active) in [14], 2.48 µM (active) on Major prion protein and > 138 µM (inactive) in the experiment “cells [15]”.

With `COc1ccc(-c2cn(-c3ccc(OC)cc3)c(S)n2)cc1`, on Beta-galactosidase, the IC50 was > 80 µM (inactive).

On to `CC1(C)CC(=O)C(C(=O)/C=C/NCCc2ccccc2)C(=O)C1`, for which the IC50 in “cells [5]” was > 29.9 µM (inactive); in [7], 7.8 µM (active). In addition, the EC50 is 1.46 µM (active) in experiment [6] and > 29.9 µM (inactive) in the experiment “cells [8]”.

For the compound `C[C@H](CO)N1C[C@H](C)[C@H](CN(C)S(=O)(=O)c2ccc(Cl)cc2)Oc2c(NC(=O)c3nc4ccccc4s3)cccc2C1=O`, in experiment [10], the half-maximal activity concentration (AC50) was 21.9 µM (active).

With `Cc1ccc2cc(NC(=O)c3ccccc3)ccc2n1`, the AC50 with HeLa was > 52 µM (inactive).

For `Cc1ccc(-c2c[n+](CC(=O)Nc3nc(-c4ccc(F)cc4)cs3)c3n2CCC3)cc1`, in experiment [16], the IC50 was > 47.1 µM (inactive). The EC50 in [17] was > 53 µM (inactive). In addition, in [18], the concentration at half-maximal activity (AC50) was 11.2 µM (active).

In the case of `Cn1c(N2CCC(C(N)=O)CC2)nc2c1c(=O)n(Cc1cccc(Br)c1)c(=O)n2C`, the IC50 on Major prion protein was 8.38 µM (active); in “cells [15]”, > 138 µM (inactive).
